Measurements from patent US8119624B2, “Fused phenyl amido heterocyclic compounds” (Pfizer Inc., priority 2006, dated 2012).
Like-named read-outs stand apart in the source and are kept apart here.

Biological target: T1, Full-length glucokinase (beta cell isoform) (Homo sapiens, UniProt P35557)
T1 construct: Full-length glucokinase (beta cell isoform) was His-tagged at N-terminus; His tag (N); made in house
T1 sequence (P35557 1-465): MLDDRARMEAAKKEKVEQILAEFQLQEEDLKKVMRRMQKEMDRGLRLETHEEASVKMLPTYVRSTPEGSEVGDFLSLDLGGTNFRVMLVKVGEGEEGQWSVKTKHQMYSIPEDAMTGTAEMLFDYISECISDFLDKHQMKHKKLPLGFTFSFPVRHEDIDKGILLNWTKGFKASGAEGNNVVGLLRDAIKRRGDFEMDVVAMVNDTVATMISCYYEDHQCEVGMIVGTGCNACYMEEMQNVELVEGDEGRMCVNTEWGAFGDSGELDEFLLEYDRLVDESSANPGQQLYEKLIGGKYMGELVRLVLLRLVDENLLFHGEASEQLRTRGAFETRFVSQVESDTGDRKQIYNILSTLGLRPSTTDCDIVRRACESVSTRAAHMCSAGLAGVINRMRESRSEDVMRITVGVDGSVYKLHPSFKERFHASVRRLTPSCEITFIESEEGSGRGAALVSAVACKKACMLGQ
Experiment: Glucokinase biochemical assay (PK/LDH-coupled, NADH depletion at 340 nm): % activation, EC50, % max activation
Conditions: 5 mM glucose; for EC50: read-out: EC50; for % Max Activation / Emax: fitted maximum activation; for Emax: read-out: % Max Activation; for activation at 10 µM: read-out: % Activation at 10 uM
Experimental: Full-length glucokinase (beta cell isoform) was His-tagged at N-terminus and purified by a Ni column followed by size exclusion chromatography. Glucose was obtained from Calbiochem, and other reagents were from Sigma.
All assays were performed in a Corning 96-well plate using Spectramax PLUS spectrophotometer (Molecular Devices) at room temperature. The final assay volume was 100 uL. The buffer conditions used in this assay were as follows: 50 mM HEPES, 5 mM glucose, 1 mM ATP, 2 mM MgCl2, 0.7mM NADH, 2 mM DTT, 1 Unit/mL PK/LDH, 0.2 mM phosphoenolpyruvate, 25 mM KCl. Tested compound in DMSO solution was added to the buffer and mixed well by a plate shaker for 1 minute. The final concentration of DMSO introduced into the assay was 1%.
Glucokinase was added to the buffer mixture to initiate the reaction in the presence and absence of compound. Reaction was monitored by absorbance at 340nm due to the depletion of NADH. The initial reaction velocity was measured by the slope of a linear time course of 200-900 sec.
The percentage of activation was calculated by the following equation: % Activation=(Va/Vo−1)×100;
wherein each of Va and Vo is defined as the initial reaction velocity in the presence and absence of the tested compound, respectively.
The GK activities were measured as a function of compound concentrations.

[1] = 10 uM compound, % Activation=(Va/Vo−1)×100
[2] = compound at 10 uM, 1 mM ATP, room temperature

% Activation at 10 uM [1] [%] | EC50 (GK activation) [µM] | % Max Activation [%] | Structure (SMILES) | further results
222 | 0.49 | 225 | COCC1(C)Cc2c(Oc3ccc(S(=O)(=O)C4CC4)cc3)cc(C(=O)Nc3ccn(C)n3)cc2O1 (single isomer, unassigned; (+)) [Example 248, (+)-4-(4-Cyclopropanesulfonyl-phenoxy)-2-methoxymethyl-2-methyl-2,3-dihydro-benzofuran-6-carboxylic acid (1-methyl-1H-pyrazol-3-yl)-amide] | –
276 | 0.086 | – | COCC1(C)Cc2c(Oc3ccc(S(=O)(=O)C4CC4)cc3)cc(C(=O)Nc3cnn(C)n3)cc2O1 (single isomer, unassigned; (+)) [Example 249, (+)-4-(4-Cyclopropanesulfonyl-phenoxy)-2-methoxymethyl-2-methyl-2,3-dihydro-benzofuran-6-carboxylic acid (2-methyl-2H-[1,2,3]triazol-4-yl)-amide] | Emax: 262%
227 | 0.42 | 246 | COCC1(C)Cc2c(Oc3ccc(S(=O)(=O)C4CC4)cc3)cc(C(=O)Nc3cnn(C)n3)cc2O1 (single isomer, unassigned; (+)) [Example 250, (+)-4-(4-Cyclopropanesulfonyl-phenoxy)-2-methoxymethyl-2-methyl-2,3-dihydro-benzofuran-6-carboxylic acid (2-methyl-2H-[1,2,3]triazol-4-yl)-amide] | –
252 | 0.083 | 254 | COCC1(C)Cc2c(Oc3ccc(S(=O)(=O)C4CC4)cc3)cc(C(=O)Nc3ccn(C)n3)cc2O1 (single isomer, unassigned; (-)) [Example 247, (−)-4-(4-Cyclopropanesulfonyl-phenoxy)-2-methoxymethyl-2-methyl-2,3-dihydro-benzofuran-6-carboxylic acid (1-methyl-1H-pyrazol-3-yl)-amide] | –

Further lines, the molecule ahead of its results:

Structure (SMILES) | % Activation at 10 uM [1] [%] | EC50 (GK activation) [µM] | % Max Activation [%] | further results
CC1Cc2c(Oc3ccc(S(C)(=O)=O)cc3)cc(C(=O)Nc3ccn(C)n3)cc2O1 (single isomer, unassigned; (+)) [Example 13, (+)4-(4-Methanesulfonyl-phenoxy)-2-methyl-2,3-dihydro-benzofuran-6-carboxylic acid(1-methyl-1H-pyrazol-3-yl)-amide] | 182 | 1.8 | 196 | –
COCC1Cc2c(Oc3ccc(C(=O)N(C)C)c(F)c3)cc(C(=O)Nc3ccn(C)n3)cc2O1 (single isomer, unassigned; (+)) [Example 207, (+)-4-(4-Dimethylcarbamoyl-3-fluoro-phenoxy)-2-methoxymethyl-2,3-dihydro-benzofuran-6-carboxylic acid (1-methyl-1H-pyrazol-3-yl)-amide] | 127 | 0.95 | 142 | –
COCC1Cc2c(Oc3ccc(C(=O)N4CCC4)cc3)cc(C(=O)Nc3ccn(C)n3)cc2O1 (single isomer, unassigned; (+)) [Example 210, (+)-4-[4-(Azetidine-1-carbonyl)-phenoxy]-2-methoxymethyl-2,3-dihydro-benzofuran-6-carboxylic acid (1-methyl-1H-pyrazol-3-yl)-amide] | 130 | 0.85 | 143 | –
COCC1Cc2c(Oc3ccc(C(=O)N(C)C)cc3)cc(C(=O)Nc3ccn(C)n3)cc2O1 (single isomer, unassigned; (+)) [Example 212, (+)-4-(4-Dimethylcarbamoyl-phenoxy)-2-methoxymethyl-2,3-dihydro-benzofuran-6-carboxylic acid (1-methyl-1H-pyrazol-3-yl)-amide] | 111 | 2.6 | 144 | –
COCC1(C)Cc2c(Oc3ccc(C(=O)N4CCC4)c(F)c3)cc(C(=O)Nc3ccn(C)n3)cc2O1 (single isomer, unassigned; (+)) [Example 244, (+)-4-[4-(Azetidine-1-carbonyl)-3-fluoro-phenoxy]-2-methoxymethyl-2-methyl-2,3-dihydro-benzofuran-6-carboxylic acid (1-methyl-1H-pyrazol-3-yl)-amide] | 287 | 0.21 | 234 | –
Cc1ccc(NC(=O)c2cc(Oc3ccc(S(=O)(=O)C4CC4)c(F)c3)c3c(c2)OC(C)(CO)C3)nc1 (single isomer, unassigned; (+)) [Example 401, (+)-4-(4-Cyclopropanesulfonyl-3-fluoro-phenoxy)-2-hydroxymethyl-2-methyl-2,3-dihydro-benzofuran-6-carboxylic acid(5-methyl-pyridin-2-yl)-amide] | – | – | – | EC50 (1 mM ATP, room temperature): 0.29 µM; activation at 10 µM [2]: 131%; Emax (1 mM ATP): 139%
CC1Cc2c(Oc3ccc(S(C)(=O)=O)cc3)cc(C(=O)Nc3ccn(C)n3)cc2O1 (single isomer, unassigned; (-)) [Example 12, (−)-4-(4-Methanesulfonyl-phenoxy)-2-methyl-2,3-dihydro-benzofuran-6-carboxylic acid(1-methyl-1H-pyrazol-3-yl)-amide] | 162 | 3 | 195 | –
COCC1Cc2c(Oc3ccc(C(=O)N(C)C)c(F)c3)cc(C(=O)Nc3ccn(C)n3)cc2O1 (single isomer, unassigned; (-)) [Example 206, (−)-4-(4-Dimethylcarbamoyl-3-fluoro-phenoxy)-2-methoxymethyl-2,3-dihydro-benzofuran-6-carboxylic acid (1-methyl-1H-pyrazol-3-yl)-amide] | 91.3 | 0.27 | 102 | –
COCC1Cc2c(Oc3ccc(C(=O)N4CCC4)cc3)cc(C(=O)Nc3ccn(C)n3)cc2O1 (single isomer, unassigned; (-)) [Example 209, (−)-4-[4-(Azetidine-1-carbonyl)-phenoxy]-2-methoxymethyl-2,3-dihydro-benzofuran-6-carboxylic acid (1-methyl-1H-pyrazol-3-yl)-amide] | 87 | 0.38 | 96 | –
COCC1Cc2c(Oc3ccc(C(=O)N(C)C)cc3)cc(C(=O)Nc3ccn(C)n3)cc2O1 (single isomer, unassigned; (-)) [Example 213, (−)-4-(4-Dimethylcarbamoyl-phenoxy)-2-methoxymethyl-2,3-dihydro-benzofuran-6-carboxylic acid (1-methyl-1H-pyrazol-3-yl)-amide] | 83.1 | 0.89 | 113 | –
COCC1(C)Cc2c(Oc3ccc(C(=O)N4CCC4)c(F)c3)cc(C(=O)Nc3ccn(C)n3)cc2O1 (single isomer, unassigned; (-)) [Example 243, (−)-4-[4-(Azetidine-1-carbonyl)-3-fluoro-phenoxy]-2-methoxymethyl-2-methyl-2,3-dihydro-benzofuran-6-carboxylic acid (1-methyl-1H-pyrazol-3-yl)-amide] | – | 0.041 | – | activation at 10 µM [1]: 275%; Emax: 218%
Cc1ccc(NC(=O)c2cc(Oc3ccc(S(=O)(=O)C4CC4)c(F)c3)c3c(c2)OC(C)(CO)C3)nc1 (single isomer, unassigned; (-)) [Example 402, (−)-4-(4-Cyclopropanesulfonyl-3-fluoro-phenoxy)-2-hydroxymethyl-2-methyl-2,3-dihydro-benzofuran-6-carboxylic acid(5-methyl-pyridin-2-yl)-amide] | – | – | – | % Activation at 10 uM [2]: 19.9%
CC1Cc2c(cc(Oc3ccc(S(C)(=O)=O)cc3)cc2C(=O)Nc2ccccn2)O1 (stereo not shown) [Example 1, 6-(4-Methanesulfonyl-phenoxy)-2-methyl-2,3-dihydrobenzofuran-4-carboxylic acid pyridin-2-ylamide] | – | 8.7 | – | activation at 10 µM [1]: 101%; Emax: 144%
Cc1ccc(NC(=O)c2cc(Oc3ccc(S(C)(=O)=O)cc3)cc3c2CC(C)O3)nc1 (stereo not shown) [Example 2, 6-(4-Methanesulfonyl-phenoxy)-2-methyl-2,3-dihydrobenzofuran-4-carboxylic acid(5-methyl-pyridin-2-yl)-amide] | – | 5.3 | – | activation at 10 µM [1]: 113%; Emax: 152%
